Experimental data as given in patent US20120149718A1, “Amido Compounds” (priority 2010, published 2012).

Assays:
[1] = molecular target: T1, human P2X7 (Homo sapiens, UniProt Q99572); assay: Intracellular Calcium Flux (FLIPR) Assay; type: cell-based; details: 1321N1 cells stably expressing full length human P2X7; agonist 100 μM BzATP; fluo-3 calcium flux; read-out: FLIPR pIC50 hP2X7-1321n1 (converted)
T1 construct: 1321N1 cells stably expressing the full length human P2X7 gene (1321N1-hP2X7)
T1 sequence (Q99572 1-595): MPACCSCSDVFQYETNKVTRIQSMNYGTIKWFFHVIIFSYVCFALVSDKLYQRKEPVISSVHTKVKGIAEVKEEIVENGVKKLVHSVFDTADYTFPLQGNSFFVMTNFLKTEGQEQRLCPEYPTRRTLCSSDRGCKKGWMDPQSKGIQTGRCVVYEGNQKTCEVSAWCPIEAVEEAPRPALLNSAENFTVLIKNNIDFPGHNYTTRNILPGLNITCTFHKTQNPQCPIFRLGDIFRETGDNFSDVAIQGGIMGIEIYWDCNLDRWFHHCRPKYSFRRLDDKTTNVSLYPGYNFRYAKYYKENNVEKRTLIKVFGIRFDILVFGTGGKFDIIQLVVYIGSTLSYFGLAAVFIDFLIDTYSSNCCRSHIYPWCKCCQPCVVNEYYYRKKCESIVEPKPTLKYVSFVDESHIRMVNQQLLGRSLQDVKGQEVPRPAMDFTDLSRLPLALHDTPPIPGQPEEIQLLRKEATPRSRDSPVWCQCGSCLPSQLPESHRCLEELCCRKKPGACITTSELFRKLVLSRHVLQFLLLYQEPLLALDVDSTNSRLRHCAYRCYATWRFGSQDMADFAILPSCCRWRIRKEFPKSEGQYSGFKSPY
Experimental: Stock solutions of compounds were prepared from powders as a 10 mM DMSO stock solution. These solutions were stored at RT during the two week period of these experiments to prevent freeze-thaw of the DMSO stocks. The DMSO stocks were added to the appropriate assay buffer at a concentration of 10 μM, and then diluted serially to the final concentrations that were tested. No observable precipitate was formed at any time during this process. The aqueous solutions of compounds as well as ATP (Sigma A7699) and BzATP (Sigma B6396) were prepared fresh for each day of experiment.
1321N1 cells stably expressing the full length human P2X7 gene (1321N1-hP2X7) and HEK293 cells stably expressing the full length rat P2X7 gene (HEK293-rP2X7) were obtained from the Roche Cell Culture Facility. 1321N1-hP2X7 cells were grown in Dulbecco's Modified Eagle's Medium (DMEM) high glucose supplemented with 10% FBS and 250 μg/mL G418. HEK293-rP2X7 cells were grown in DMEM/F-12 supplemented with 10% FBS, 1 mM CaCl2, 2 mM MgCl2, 2 mM L-Glutamine and 500 μg/ml G418. Cells were split such that they never became >70% confluent.
On the day prior to the experiment, 1321N1-hP2X7 or HEK293-rP2X7 cells were released into suspension with calcium-free PBS+Versene and washed by centrifugation with calcium-free PBS to remove the Versene. Cells were resuspended in growth medium at a density of 2.5×10^5 cells/mL and seeded into black walled, clear bottom 96 well plates (50,000 cells/well) approximately 18 hr prior to intracellular calcium flux experiments.
On the day of the experiment, plates were washed with FLIPR buffer (calcium- and magnesium-free Hank's Balanced Salt Solution (HBSS) supplemented with 10 mM Hepes, 2.5 mM probenecid and 2 mM calcium chloride) using a BIO-TEK 96 channel plate washer and incubated with […] fluo-3 dye at 37° C. for one hr. The dye was then removed by plate washing and the cells were allowed to equilibrate for 20 min at room temperature with antagonist or vehicle (FLIPR buffer). Agonist (100 μM BzATP final concentration for hP2X7; 5 μM BzATP final concentration or rP2X7) was added online with the FLIPR and fluorescence measurements made at 1 sec intervals for 60 sec followed by 3 sec intervals for a further 4 min (5 min total). A final addition of 5 μM ionomycin was made and the maximal BzATP-evoked fluorescence normalized to the maximal ionomycin-evoked fluorescence.

melting point [°C]	IC50 [1] [nM]	Compound
87 to 90	282	CC(C)(O)c1ccc(C(Cc2ccc(F)cc2)C(=O)Nc2nc3ccccc3o2)cc1 (centres unmarked) [Compound I-31, N-Benzooxazol-2-yl-3-(4-fluoro-phenyl)-2-[4-(1-hydroxy-1-methyl-ethyl)-phenyl]-propionamide]
137 to 139	20.4	NC(=O)c1ccc(C(Cc2ccc(F)cc2)C(=O)Nc2nc3ccccc3o2)cc1 (centres unmarked) [Compound I-32, 4-[1-(Benzooxazol-2-ylcarbamoyl)-2-(4-fluoro-phenyl)-ethyl]-benzamide]
134 to 136	347	O=C(NCCO)c1ccc(C(Cc2ccc(F)cc2)C(=O)Nc2nc3ccccc3o2)cc1 (centres unmarked) [Compound I-33, 4-[1-(Benzooxazol-2-ylcarbamoyl)-2-(4-fluoro-phenyl)-ethyl]-N-(2-hydroxy-ethyl)-benzamide]
149 to 151	389	CN(C)CCNC(=O)c1ccc(C(Cc2ccc(F)cc2)C(=O)Nc2nc3ccccc3o2)cc1 (centres unmarked) [Compound I-34, 4-[1-(Benzooxazol-2-ylcarbamoyl)-2-(4-fluoro-phenyl)-ethyl]-N-(2-dimethylamino-ethyl)-benzamide]
